# From PubChem BioAssay AID463074 (Broad Institute, 2010)
# Active and inactive are the calls of the source.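 The calls were made as follows: active = AC50 no more than tenfold above the top dose tested, or full inhibition at every dose with a flat fit (cut at about 19 µM in these data); inconclusive = flat curve fit with inhibition between 30% and 70%, or poor fit; inactive = AC50 more than tenfold above the top dose tested.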
# Tested on: HMLE_sh_eGFP viability, CellTiter-Glo luminescence, 72 h
# Assay: cytotoxicity in HMLE control line with eGFP shRNA, dose response, counter-screen for HMLE_sh_ECad selective toxicity project, cell-based, HMLE_sh_eGFP, luminescence (AID 463074);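 also: counterscreen control line to flag general toxicity for the HMLE_sh_ECad screen; potency for loss of viability as luminescence drops below DMSO wells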
row,SMILES,AC50
1,Cc1cc(-c2csc3nc[nH]c(=S)c23)cc(C)c1C,18.8 µM
2,Cc1cccc(NC(=O)c2nc[nH]c2C(=O)N[C@H](C)c2ccccc2)c1,7.13 µM
3,Cc1ccc(N2NC(=O)/C(=C\c3cc4c(cc3[N+](=O)[O-])OCO4)C2=O)cc1C,4.44 µM
4,CC(C)C[C@@H](CO)N(Cc1ccccc1)S(=O)(=O)N(Cc1ccccc1)[C@@H](CO)CC(C)C,3.87 µM
5,Cn1c2ccccc2c(=O)c2cc(C#Cc3ccccn3)ccc21,> 19.5 µM (inactive)
6,COc1ccc2cc(/C=N/NC(=O)c3ccc(CN(c4cccc(Cl)c4Cl)S(C)(=O)=O)cc3)c(Cl)nc2c1,0.211 µM
7,CCCCCCOc1ccc(OC(=O)c2cccnc2)cc1,10.1 µM
8,NC(=O)c1sc(-c2ccsc2)cc1NS(=O)(=O)c1ccc(C(F)(F)F)cc1,16.1 µM
9,Cc1cc(C)cc(NC(=O)CCc2nc3sc4c(c3c(=O)[nH]2)CCCC4)c1,5.26 µM
10,COc1ccc(-c2nn(-c3ccccc3)cc2/C=C2/SC(=S)N(CCC(=O)O)C2=O)c(C)c1,8.18 µM
11,O=[N+]([O-])c1cc(-c2cnc3ccccc3n2)ccc1Oc1ccc(Cl)cc1,3.38 µM
12,CCc1c(C2(O)CCCCC2)[nH]c2cc(C(F)(F)F)ccc12,3.15 µM
13,Cc1cccc(NC(=O)CCC(=O)N/N=C/c2ccc(O)cc2O)c1,10.6 µM
14,O=C(Nc1ccc(CN2CCOCC2)cc1)c1ccc(-c2ccc(Cl)cc2Cl)o1,7.06 µM
15,CCCOc1ccc(/C=N/Nc2cccc([N+](=O)[O-])c2)c(O)c1,3.42 µM
16,CC(=O)C12CC(C)=C(C)CC1CC1C3CCC4=CC(=O)CCC4(C)C3CCC12C (configuration not stated),6.65 µM
17,COc1ccc(OC)c(NC(=O)c2nc(S(=O)(=O)Cc3ccccc3)ncc2Cl)c1,6.74 µM
18,CC(=O)c1ccc(-c2ccc([C@H]3[C@H]4C=CC[C@@H](C)[C@@H]4C(=O)N3Cc3ccccc3)c(F)c2)cc1,6.13 µM
19,COc1ccc(NC(=O)c2c(N)no[n+]2[O-])cc1,1.34 µM
20,COC(=O)c1ccc(/C=C/c2c(-c3ccc(OC)cc3)oc3ccc(N4CCOCC4)cc23)cc1,4.19 µM
21,O=C(N[C@H]1C/C=C\C[C@@H](CC(=O)N(CCO)Cc2ccccc2)C(=O)NC[C@H](c2ccccc2)OC1=O)OCC1c2ccccc2-c2ccccc21,2.41 µM
22,CC1=C(CO)C(=O)OC([C@@H](C)C2CC[C@H]3C4C[C@H]5O[C@]56[C@@H](O)C=CC(=O)[C@]6(C)C4CC[C@]23C)C1 (some centres not stated),1.62 µM
23,Cc1ccc(NC(=O)c2nc[nH]c2C(=O)NCCCNC(=O)c2[nH]cnc2C(=O)Nc2ccc(C)cc2)cc1,3.86 µM
24,O=C(Nc1ccc2c(c1)OCO2)c1ccc(COc2ccc3c(c2)CCC3)o1,6.25 µM
25,O=c1cc(NS(=O)(=O)c2ccccc2)nc(SCc2ccc(Cl)cc2)[nH]1,5.9 µM
26,CCOC(=O)C1=C(c2ccccc2)N=c2s/c(=C\c3cccc(O)c3)c(=O)n2C1c1cccs1 (configuration not stated),3.39 µM

row,SMILES,AC50
1,CCn1c2ccccc2c2cc(NC(=O)c3cccc([N+](=O)[O-])c3)ccc21,3.63 µM
2,CCOC(=O)c1c(CSc2ccc(C)cc2)oc2ccc(O)cc12,5.05 µM
3,CCCCN=C(NNc1ccc(Br)cc1)C(=O)OCC,3.99 µM
4,Cc1cc(N)n(-c2ccc(S(N)(=O)=O)cc2[N+](=O)[O-])n1,> 19.5 µM (inactive)
5,CCn1c(C(=O)O)c(CC(=O)Nc2cccc(C(F)(F)F)c2)c2ccccc21,14.6 µM
6,FC(F)(F)c1ccc(-c2noc(CN3CCCN(C4CCCCC4)CC3)n2)cc1,7.39 µM
7,COc1ccc(C)cc1N1C(=N)/C(=C2/Nc3ccccc3S2)C(c2ccccc2)C1=O (configuration not stated),17.8 µM
8,O=c1c2ccccc2nc(/C=C/c2ccc(Br)cc2)n1CCO,16.6 µM
9,Cc1cc(C)nc(NC(=NCCc2c[nH]c3ccccc23)NC(=O)Nc2ccc(Cl)cc2)n1,> 19.5 µM (inactive)
10,C=C1CCN([C@@H](CC(C)C)C(=O)Nc2nc3ccc(Cl)cc3s2)S(=O)(=O)c2ccccc21,14.5 µM
11,CC1CCN(c2nc(Cl)nc(Nc3ccc([N+](=O)[O-])cc3)n2)CC1,3.41 µM
12,Cc1cn(-c2cc(C(=O)Nc3ccc(C)c(NC(=O)C(=O)c4c[nH]c5ccccc45)c3)cc(C(F)(F)F)c2)cn1,3.5 µM
13,COc1cccc(O)c1CN1CCC(C(=O)Nc2ccc(-c3cccc(C)c3)cc2)CC1,4.06 µM
14,CC(C)=CCc1c(O)c(CC=C(C)C)c2occ(-c3ccc(O)cc3)c(=O)c2c1O,3.49 µM
15,CCCc1cc(-c2nc(-c3ccc(Cl)cc3)cs2)ccn1,13 µM
16,N#CC1(NC(=O)COC(=O)c2cc(O)c3ccccc3c2O)CCCCC1,9.15 µM
17,CC(C)N1CCN(Cc2ccc(OCc3ccccc3)cc2)CC1CCO (configuration not stated),11.5 µM
18,CN(C)CCNC(=O)/C(=C/c1ccc(-c2ccc(Cl)cc2Cl)o1)NC(=O)c1ccccc1,4.78 µM
19,CCOC(=O)C(=Cc1ccc(-n2cncn2)cc1)C(=O)OCC,6.4 µM
20,COc1ccc(C)cc1Nc1n[n+](-c2ccccc2)c(-c2c(OC)ccc3ccccc23)s1,6.93 µM
21,CC1CCCN(CCCOc2ccc(Br)cc2Cl)C1 (configuration not stated),8.36 µM
22,COCCN(C(=O)C(C)C)c1nnc(-c2ccc(C(C)(C)C)cc2)s1,3.06 µM
23,O=c1cc(C(F)(F)F)[nH]c2c(OC(F)(F)F)cccc12,> 19.5 µM (inactive)
24,Cc1cccc(-c2nc(C#N)c(NC3CCCCC3)o2)c1,19.4 µM
25,O=C(Oc1ccc(-c2nc(-c3ccccn3)no2)cc1)c1ccccc1,1.63 µM
26,COc1ccccc1C1c2ccc3ccccc3c2Oc2ncn(CCN(C)C)c(=N)c21 (configuration not stated),4.22 µM

row,SMILES,AC50
1,Cc1ccc(/C=C/C(=O)NCC2COc3ccccc3O2)o1 (configuration not stated),> 19.5 µM (inactive)
2,CC(C)(C)c1ccc(O)c(O)c1,13.3 µM
3,N#Cc1c([N+](=O)[O-])cc([N+](=O)[O-])cc1S(=O)(=O)Cc1ccccc1,3.62 µM
4,CCn1cc([N+](=O)[O-])c(C(=O)Nc2nc(-c3ccc(C)cc3)c(C)s2)n1,5.54 µM
5,O=C(NC(=S)Nc1cccc(Cl)c1N1CCCCC1)c1cccs1,6.92 µM
6,C=C(C)COc1ccc(-c2[nH]ncc2-c2ccc(OC)cc2)c(O)c1,8.86 µM
7,Cc1cccc(N2CCN(C(=S)Nc3ccc4nc(N5CCN(C)CC5)cc(C)c4c3)CC2C)c1 (configuration not stated),7.35 µM
8,CC1=NOC(=O)/C1=C\c1ccc(-c2cc(Cl)ccc2Cl)o1,1.06 µM
9,Cc1ccc(N2C(=O)NC(=O)/C(=C\C=C\c3ccco3)C2=O)cc1,4.54 µM
10,Cc1cc(C(C)(C)C)c(OC(=O)[C@@H]2OC(c3ccccc3)=C[C@H]2c2ccccc2)c(C(C)(C)C)c1,7.77 µM
11,COc1cccc(-c2sc3ccc(OC)cc3c2-c2ccc(OCCN(C)C)cc2)c1,3.59 µM
12,Cc1ccc(C(C)C)c(OCc2nn(CC(=O)c3ccc(Cl)cc3)c3[n+]2CCCCC3)c1,3.22 µM
13,COc1ccc(/C=N/N(c2ccccc2)c2ccccc2)cc1O,7.09 µM
14,Cn1c(=O)n(Cc2ccc(F)cc2)c(=O)c2c1nc1n2CCCN1C1CCCCC1,4.43 µM
15,CCCS(=O)(=O)c1c(S(=O)(=O)CCC)c2c(C)cccn2c1C(=O)N/N=C/c1cc(O)cc(O)c1,1.72 µM
16,O=C(c1ccc(CSc2ccccc2)cc1)N1CCN(c2ccccc2)CC1,9.49 µM
17,COc1cc(C(=O)OC2CC3CCC2(C)C3(C)C)ccc1OC(C)=O (configuration not stated),6.46 µM
18,CC(C)(C)c1cc(C=C(C#N)C#N)cc(C(C)(C)C)c1O,3.08 µM
19,CCN(CC)CCCNC(=O)c1cc2c(Cl)nc3ccccc3c2s1,5.16 µM
20,CN1CCN(C2Cc3ccccc3Sc3cc(C(F)(F)F)ccc32)CC1 (configuration not stated),6.9 µM
21,Cc1ccc(-c2nc(Nc3cccc(O)c3)c3ccccc3n2)cc1,7.23 µM
22,COc1cc(-c2nc(-c3ccc(NC(=O)c4ccc(Br)o4)cc3)no2)cc(OC)c1OC,3.5 µM
23,Cc1ccc(NS(=O)(=O)c2cc3c4c(cccc4c2)C(=O)NC3=O)cc1C,6.49 µM
24,NC(=O)CC(NC(=O)Cc1ccc(Br)cc1)c1ccc(NCc2cc(F)ccc2F)c([N+](=O)[O-])c1 (configuration not stated),3.36 µM
25,COc1cc(/C=N/NC(=O)c2ccc(CN(C)S(=O)(=O)c3ccc(C)cc3)cc2)ccc1O,5.13 µM
26,CC(NCC(O)COCCC12CC3CC(CC(C3)C1)C2)c1ccccc1 (configuration not stated),3.32 µM

row,SMILES,AC50
1,c1ccc(-c2cc3c(NCC4COc5ccccc5O4)ncnc3s2)cc1 (configuration not stated),4.99 µM
2,CC(C)OC(=O)c1c2c(n3ccccc13)C(=O)c1ccccc1C2=O,> 19.5 µM (inactive)
3,COc1ccc(C2=NN(C(=O)COC(=O)c3ccc(S(C)(=O)=O)c([N+](=O)[O-])c3)C(c3ccco3)C2)cc1 (configuration not stated),3.84 µM
4,CC1=C(/C=C/C(C)=C/C=C/C(C)=C/C(=O)Nc2ccc(O)cc2)C(C)(C)CCC1,2.26 µM
5,Cc1cc(SCC(=O)c2cccs2)n2nc(C)c(-c3ccc(Cl)cc3)c2n1,15.5 µM
6,CCN1CCN(C(=S)Nc2sc(C)c(-c3ccccc3)c2C(=O)OC)CC1,4.72 µM
7,Cc1ccc(NS(=O)(=O)c2ccc(Cl)c(NC(=S)NC(=O)C3CCCCC3)c2)cc1Cl,3.58 µM
8,C=CCn1c(=O)c(C(=O)NCCc2ccccc2)c(O)c2ccccc21,5.77 µM
9,N/C(=N\N=C/c1ccc(F)cc1)N/N=C\c1ccc(F)cc1,5.13 µM
10,C=C(C)COc1ccc(-c2nc(N)ncc2-c2ccc(Br)cc2)c(O)c1,7.37 µM
11,Cc1ccc(NCc2ccc([N+](=O)[O-])s2)cc1,> 19.5 µM (inactive)
12,O=C(Nc1cc(C(F)(F)F)ccc1N1CCCCC1)c1ccc(Br)o1,8.32 µM
13,CN1CCN(C2=Cc3ccc(Cl)cc3Sc3ccc(F)cc32)CC1,6.74 µM
14,CN(C)CCNc1nc2sc3c(c2c(=O)n1-c1ccccc1)CCCCC3,3.22 µM
15,O=C(Nc1nc2ccc(SC(F)F)cc2s1)c1ccc(NS(=O)(=O)c2ccc(F)c(F)c2)cc1,3.58 µM
16,O=C(Nc1ncc(Cc2cccc([N+](=O)[O-])c2)s1)c1ccco1,1.44 µM
17,Oc1ccc(C2=NN(c3ccccc3)C(c3ccc(F)cc3)C2)cc1 (configuration not stated),3.45 µM
18,COc1ccc(-c2csc3nc(-c4ccccc4F)oc(=O)c23)cc1OC,3.86 µM
19,O=C(Nc1ncc(S(=O)(=O)c2ccc([N+](=O)[O-])cc2)s1)c1ccc2ccccc2c1,3.61 µM
20,Cc1cccc(OCCNc2cc(N3CCN(C)CC3)ccc2[N+](=O)[O-])c1,5.34 µM
21,Cc1ccc(C)c(S(=O)(=O)N2CCN(c3ncnc4sccc34)CC2)c1,3.19 µM
22,NC(=O)CC(NC(=O)Cc1ccc(Br)cc1)c1ccc(N2CCC(Cc3ccccc3)CC2)c([N+](=O)[O-])c1 (configuration not stated),14.7 µM
23,CS(=O)(=O)Nc1ccccc1C(=O)Nc1cccc(Cl)c1,> 19.5 µM (inactive)
24,COC(=O)c1c(NC(=O)/C=C/c2ccc3c(c2)OCO3)sc(C)c1C,1.7 µM
